Experimental data from ChEMBL document CHEMBL1201862, “PubChem BioAssay data set” (2004).
Active and inactive are the calls of the source.

What was measured:
Coagulation factor XII = biological target: T1, Coagulation factor XII (Homo sapiens, UniProt P00748); assay: FXIIa inhibitor potency, concentration-response, biochemical (AID 716); type: functional
T1 sequence (P00748 whole entry): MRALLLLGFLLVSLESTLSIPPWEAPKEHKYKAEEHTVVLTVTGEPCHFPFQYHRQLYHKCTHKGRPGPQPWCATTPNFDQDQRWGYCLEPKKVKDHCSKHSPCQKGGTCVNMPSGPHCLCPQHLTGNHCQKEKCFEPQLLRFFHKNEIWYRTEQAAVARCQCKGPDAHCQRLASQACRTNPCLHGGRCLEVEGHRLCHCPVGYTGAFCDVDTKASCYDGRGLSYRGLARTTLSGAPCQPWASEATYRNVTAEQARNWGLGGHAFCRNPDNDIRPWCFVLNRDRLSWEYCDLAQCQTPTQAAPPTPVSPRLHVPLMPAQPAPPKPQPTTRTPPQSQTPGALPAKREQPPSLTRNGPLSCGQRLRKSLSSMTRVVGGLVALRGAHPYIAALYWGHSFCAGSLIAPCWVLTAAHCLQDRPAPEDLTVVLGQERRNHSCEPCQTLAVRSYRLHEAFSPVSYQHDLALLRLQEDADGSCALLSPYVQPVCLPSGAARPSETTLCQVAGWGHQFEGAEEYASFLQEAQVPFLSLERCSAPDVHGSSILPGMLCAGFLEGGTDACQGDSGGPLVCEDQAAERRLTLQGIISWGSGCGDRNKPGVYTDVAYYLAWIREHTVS

Phospholipase A2 = Phospholipase A2 (Homo sapiens, UniProt P04054); type: functional;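 note: confirmatory dose-response counterscreen on phospholipase A2, testing hits that came from an ultra-high-throughput screen for ATG4B inhibitors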
Chain of Phospholipase A2 (P04054 whole entry): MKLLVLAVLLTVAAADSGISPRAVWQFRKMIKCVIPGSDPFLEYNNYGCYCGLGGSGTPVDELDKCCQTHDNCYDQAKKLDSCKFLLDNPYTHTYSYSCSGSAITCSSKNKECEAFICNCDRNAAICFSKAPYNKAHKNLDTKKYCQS

HEK293 [1] = assay: NOD1 signaling inhibitors, primary screen, cell-based, luminescence, uHTS (AID 1578); type: functional; details: Homo sapiens
[2] = biological target: T2, Nucleotide-binding oligomerization domain-containing protein 2 (Homo sapiens, UniProt Q9HC29); assay: NOD2 signaling inhibitors, cell-based, luminescence, uHTS, HEK293 (AID 1566); type: functional
T2 sequence (Q9HC29 whole entry, the tested form may be a part): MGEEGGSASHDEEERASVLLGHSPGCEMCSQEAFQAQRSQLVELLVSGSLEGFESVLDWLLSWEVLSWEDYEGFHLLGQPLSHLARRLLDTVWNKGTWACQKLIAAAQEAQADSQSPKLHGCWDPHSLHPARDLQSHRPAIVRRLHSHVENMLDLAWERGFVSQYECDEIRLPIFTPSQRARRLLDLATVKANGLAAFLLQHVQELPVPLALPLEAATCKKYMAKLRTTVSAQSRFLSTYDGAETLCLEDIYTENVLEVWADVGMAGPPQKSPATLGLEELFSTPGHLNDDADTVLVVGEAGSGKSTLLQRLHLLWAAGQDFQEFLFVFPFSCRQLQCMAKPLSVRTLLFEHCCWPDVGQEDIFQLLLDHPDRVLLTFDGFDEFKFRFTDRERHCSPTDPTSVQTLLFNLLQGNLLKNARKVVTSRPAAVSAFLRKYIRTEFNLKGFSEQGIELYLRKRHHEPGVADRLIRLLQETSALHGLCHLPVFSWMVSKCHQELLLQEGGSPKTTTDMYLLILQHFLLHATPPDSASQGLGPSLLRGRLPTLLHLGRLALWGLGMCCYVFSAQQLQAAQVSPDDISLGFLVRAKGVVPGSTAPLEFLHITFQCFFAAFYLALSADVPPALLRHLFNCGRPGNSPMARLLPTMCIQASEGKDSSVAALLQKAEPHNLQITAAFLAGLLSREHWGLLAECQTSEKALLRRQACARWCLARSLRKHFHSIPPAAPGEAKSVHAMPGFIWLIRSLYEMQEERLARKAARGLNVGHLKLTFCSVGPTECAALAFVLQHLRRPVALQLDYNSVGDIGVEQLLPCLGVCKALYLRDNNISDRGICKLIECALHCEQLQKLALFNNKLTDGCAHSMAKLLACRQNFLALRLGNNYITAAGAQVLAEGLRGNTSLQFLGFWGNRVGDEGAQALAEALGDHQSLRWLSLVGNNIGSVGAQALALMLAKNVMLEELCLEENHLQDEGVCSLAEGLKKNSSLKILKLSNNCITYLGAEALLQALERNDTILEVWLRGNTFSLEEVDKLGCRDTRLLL

HEK293 [3] = assay: cells; details: Homo sapiens
Cysteine protease ATG4B = biological target: T3, Cysteine protease ATG4B (Homo sapiens, UniProt Q9Y4P1); type: functional;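 note: Fluorescence-based dose-response confirmation assay measuring inhibition of ATG4B activity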
T3 sequence (Q9Y4P1 whole entry): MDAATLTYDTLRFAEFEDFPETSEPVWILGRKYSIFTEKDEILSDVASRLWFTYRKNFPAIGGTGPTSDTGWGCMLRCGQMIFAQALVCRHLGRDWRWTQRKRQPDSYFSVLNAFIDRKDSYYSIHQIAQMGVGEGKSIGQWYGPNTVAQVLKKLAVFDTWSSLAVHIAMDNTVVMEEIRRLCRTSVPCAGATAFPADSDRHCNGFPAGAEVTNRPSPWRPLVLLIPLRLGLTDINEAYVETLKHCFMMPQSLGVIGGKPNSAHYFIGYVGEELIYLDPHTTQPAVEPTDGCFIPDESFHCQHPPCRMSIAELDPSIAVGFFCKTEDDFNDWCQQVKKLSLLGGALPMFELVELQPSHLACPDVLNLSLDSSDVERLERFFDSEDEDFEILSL

[4] = biological target: T2, Nucleotide-binding oligomerization domain-containing protein 2; assay: PubChem AID 2334; type: functional
HEK293 [5] = assay: cells; type: functional, cell-based; details: Homo sapiens
HEK293 [6] = assay: cells; type: functional, cell-based; details: Homo sapiens; remark: listed apart in the source
[7] = HEp-2 cell cytotoxicity, dose response, cytotoxicity control for RSV inhibitor project, HTS (AID 2410); type: functional; details: human respiratory syncytial virus
HEK293 [8] = assay: NOD2 signaling inhibitors in MDP-stimulated cells, cell-based, uHTS, luminescence (AID 2001); type: functional; details: Homo sapiens
[9] = biological target: T4, Nucleotide-binding oligomerization domain-containing protein 1 (Homo sapiens, UniProt Q9Y239); assay: NOD1 signaling inhibitors, SAR follow-up, revised (AID 2333); type: functional
T4 sequence (Q9Y239 whole entry): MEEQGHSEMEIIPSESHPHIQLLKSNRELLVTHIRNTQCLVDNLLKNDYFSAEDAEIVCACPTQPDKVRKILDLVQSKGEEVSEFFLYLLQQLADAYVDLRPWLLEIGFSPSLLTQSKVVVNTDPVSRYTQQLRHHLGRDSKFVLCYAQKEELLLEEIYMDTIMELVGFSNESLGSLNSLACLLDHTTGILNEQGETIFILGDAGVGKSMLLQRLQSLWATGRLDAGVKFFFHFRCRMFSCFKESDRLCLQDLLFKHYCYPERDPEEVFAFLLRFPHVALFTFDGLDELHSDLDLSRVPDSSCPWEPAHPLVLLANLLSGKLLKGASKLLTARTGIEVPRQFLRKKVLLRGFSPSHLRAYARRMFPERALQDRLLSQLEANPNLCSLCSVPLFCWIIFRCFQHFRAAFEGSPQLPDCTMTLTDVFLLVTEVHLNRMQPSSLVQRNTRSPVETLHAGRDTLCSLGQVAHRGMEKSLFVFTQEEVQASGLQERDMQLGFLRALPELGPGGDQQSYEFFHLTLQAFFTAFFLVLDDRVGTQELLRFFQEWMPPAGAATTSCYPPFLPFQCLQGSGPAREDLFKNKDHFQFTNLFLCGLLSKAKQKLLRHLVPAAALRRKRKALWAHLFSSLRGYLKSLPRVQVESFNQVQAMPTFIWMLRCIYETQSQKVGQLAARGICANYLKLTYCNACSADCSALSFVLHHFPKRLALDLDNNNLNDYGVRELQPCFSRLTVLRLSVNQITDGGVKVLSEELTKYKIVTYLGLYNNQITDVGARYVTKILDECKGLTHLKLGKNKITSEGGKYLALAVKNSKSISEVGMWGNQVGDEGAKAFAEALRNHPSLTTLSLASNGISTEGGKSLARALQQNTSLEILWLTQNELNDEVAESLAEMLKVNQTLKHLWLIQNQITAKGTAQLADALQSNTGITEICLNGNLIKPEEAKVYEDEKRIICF

Tumor necrosis factor = Tumor necrosis factor (Homo sapiens, UniProt P01375); assay: TNFa-triggered NF-kB activation inhibitors, SAR follow-up, cell-based, revised (AID 2337); type: functional
Chain of Tumor necrosis factor (P01375 whole entry): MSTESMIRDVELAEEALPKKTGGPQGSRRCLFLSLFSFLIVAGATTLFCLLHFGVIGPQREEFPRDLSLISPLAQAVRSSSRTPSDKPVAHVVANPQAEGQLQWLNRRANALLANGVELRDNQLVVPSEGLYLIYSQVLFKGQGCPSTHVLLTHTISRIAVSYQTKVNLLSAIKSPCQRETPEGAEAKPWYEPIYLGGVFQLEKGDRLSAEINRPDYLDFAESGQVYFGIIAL

HEK293 [10] = assay: cells; type: functional, cell-based; details: Homo sapiens; remark: listed apart in the source
cells = type: functional
[11] = Vero E6 cell cytotoxicity, dose response, cytotoxicity control for non-replicating M. tuberculosis project, secondary assay (AID 492998); type: functional, VeroE6; details: Vero C1008
[12] = insulin promoter down-regulators in MIN6 cells, imaging, high-content screening, mouse beta cells (AID 1628); type: functional
[13] = THP-1 cell cytotoxicity, dose response, cytotoxicity control for non-replicating M. tuberculosis project (AID 489025); type: functional
[14] = growth suppression of beta-catenin-knockout colon cells, dose response, cell-based, HCT116, human colon tumor (AID 1045); type: functional;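 note: HCT116 colon tumor cells with beta catenin knocked out; cells exposed to compound for 60 hours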
[15] = cytotoxicity in MIN6 insulinoma cells, dose response, cytotoxicity control, cell-based, mouse insulinoma (AID 2122); type: functional;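 note: confirmatory high-throughput counterscreen run to flag cytotoxic compounds; mouse MIN-6 beta cells carrying an insulin promoter eGFP reporter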
[16] = growth suppression of PTEN-null colon cells, dose response, cell-based, HCT116 PTEN knockout (AID 1047); type: functional;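 note: HCT116 colon tumor cells with PTEN knocked out; cells exposed to compound for 60 hours before readout; potency for loss of cell viability measured by luminescence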
[17] = HepG2 cell cytotoxicity, dose response, cytotoxicity control for non-replicating M. tuberculosis project (AID 489018); type: functional; details: Mycobacterium tuberculosis
[18] = HeLa cell cytotoxicity, dose response, cytotoxicity control for MgcRacGAP inhibitor project (AID 624300); type: functional
[19] = biological target: T5, Microphthalmia-associated transcription factor (Homo sapiens, UniProt O75030); assay: TRPM1 promoter luciferase signal decrease, dose response, MITF inhibitor project, cell-based, SK-MEL-5, cherry-picked, set 3 (AID 493073); type: functional
T5 sequence (O75030 whole entry): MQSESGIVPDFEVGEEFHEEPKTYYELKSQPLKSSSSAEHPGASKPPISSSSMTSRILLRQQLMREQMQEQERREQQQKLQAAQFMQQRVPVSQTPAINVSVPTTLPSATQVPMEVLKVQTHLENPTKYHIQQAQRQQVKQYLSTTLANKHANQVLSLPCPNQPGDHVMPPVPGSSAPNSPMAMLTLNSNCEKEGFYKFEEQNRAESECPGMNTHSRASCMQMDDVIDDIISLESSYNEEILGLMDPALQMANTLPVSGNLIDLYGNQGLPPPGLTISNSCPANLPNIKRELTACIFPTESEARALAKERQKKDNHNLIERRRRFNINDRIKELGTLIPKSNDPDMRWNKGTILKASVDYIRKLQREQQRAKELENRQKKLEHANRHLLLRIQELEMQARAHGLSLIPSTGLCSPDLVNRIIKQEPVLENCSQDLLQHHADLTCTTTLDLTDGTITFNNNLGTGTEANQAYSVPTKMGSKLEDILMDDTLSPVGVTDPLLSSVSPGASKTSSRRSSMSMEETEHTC

[20] = biological target: T6, RNA-binding protein pos-1 (Caenorhabditis elegans, UniProt G5EF15); assay: inhibitors of POS-1/mex-3 RNA binding, dose response, biochemical, fluorescence polarization (AID 1964);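 note: purified POS-1 fused to maltose binding protein made in E. coli; potency of compounds blocking POS-1 binding to fluorescent RNA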
T6 sequence (G5EF15 whole entry): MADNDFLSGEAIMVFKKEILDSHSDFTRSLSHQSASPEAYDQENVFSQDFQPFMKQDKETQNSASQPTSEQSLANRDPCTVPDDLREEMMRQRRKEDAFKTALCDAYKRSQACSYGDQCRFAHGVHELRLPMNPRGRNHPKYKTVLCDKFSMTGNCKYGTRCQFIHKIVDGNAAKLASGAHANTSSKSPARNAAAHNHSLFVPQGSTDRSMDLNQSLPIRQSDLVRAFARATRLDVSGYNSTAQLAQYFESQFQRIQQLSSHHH

[21] = biological target: T7, Zinc finger protein mex-5 (Caenorhabditis elegans, UniProt Q9XUB2); assay: MEX-5/TCR-2 RNA interaction inhibitors, dose response, biochemical, C. elegans, fluorescence polarization (AID 1960)
T7 sequence (Q9XUB2 whole entry): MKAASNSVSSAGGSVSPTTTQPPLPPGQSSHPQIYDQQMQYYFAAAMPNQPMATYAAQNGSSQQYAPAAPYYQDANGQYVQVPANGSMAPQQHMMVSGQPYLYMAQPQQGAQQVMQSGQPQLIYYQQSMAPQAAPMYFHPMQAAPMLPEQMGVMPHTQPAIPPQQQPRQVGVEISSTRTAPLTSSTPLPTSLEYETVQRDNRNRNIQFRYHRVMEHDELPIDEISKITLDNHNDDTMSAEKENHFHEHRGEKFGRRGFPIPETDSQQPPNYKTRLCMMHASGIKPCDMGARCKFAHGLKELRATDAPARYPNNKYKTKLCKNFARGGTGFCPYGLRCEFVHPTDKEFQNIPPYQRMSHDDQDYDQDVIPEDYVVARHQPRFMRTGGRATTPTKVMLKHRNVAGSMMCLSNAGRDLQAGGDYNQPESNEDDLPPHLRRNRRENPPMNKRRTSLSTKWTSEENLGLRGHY

Vero = assay: cells; type: functional; details: Chlorocebus sabaeus
[22] = microbe, parasite or virus in culture; type: functional; details: Mycobacterium tuberculosis
[23] = biological target: Dual specificity protein phosphatase 3 (Homo sapiens, UniProt P51452); assay: SAR VHR1 Fluorescent Assay for In Vitro dose response studies Set 2. [Related pubchem assays (depositor defined):AID1654, AID1661, AID1878]; type: functional
Chain of Dual specificity protein phosphatase 3 (P51452 whole entry): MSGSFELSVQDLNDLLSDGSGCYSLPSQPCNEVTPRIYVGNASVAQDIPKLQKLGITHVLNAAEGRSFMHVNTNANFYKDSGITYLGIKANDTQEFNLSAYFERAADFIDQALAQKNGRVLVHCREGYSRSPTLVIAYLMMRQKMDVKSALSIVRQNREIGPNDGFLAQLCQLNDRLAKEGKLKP

[24] = biological target: T8, Tyrosine-protein phosphatase non-receptor type 7 (Homo sapiens, UniProt P35236); assay: SAR analysis of chemical inhibitors of HePTP using a Fluorescent assay - Set 2. [Related pubchem assays (depositor defined):AID1059, AID1077, AID1661, AID2085, AID521]; type: functional
T8 sequence (P35236 whole entry): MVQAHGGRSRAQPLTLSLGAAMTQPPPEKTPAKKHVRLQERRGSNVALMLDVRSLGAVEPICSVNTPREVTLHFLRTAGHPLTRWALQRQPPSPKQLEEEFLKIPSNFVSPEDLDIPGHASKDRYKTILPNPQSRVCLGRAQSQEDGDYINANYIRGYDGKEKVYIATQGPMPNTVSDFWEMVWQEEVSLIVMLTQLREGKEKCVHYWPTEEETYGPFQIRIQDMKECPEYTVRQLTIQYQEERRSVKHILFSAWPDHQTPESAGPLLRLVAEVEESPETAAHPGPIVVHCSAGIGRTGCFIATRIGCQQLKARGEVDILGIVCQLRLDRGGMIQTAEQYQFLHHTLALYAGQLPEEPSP

## CC(=O)Nc1nc(=O)c2ccccc2s1
Coagulation factor XII
  IC50: > 50 µM (inactive)

## O=C(CSc1nc2ccccc2c(=O)n1Cc1ccccc1)Nc1ccc(Br)cc1C(=O)O
Phospholipase A2
  IC50: 12.1 µM (active)
HEK293 [1]
  EC50: 6.11 µM (active)
[2]
  EC50: 7.92 µM (active)
HEK293 [3]
  IC50: > 20 µM (inactive)
Cysteine protease ATG4B
  IC50: 13.9 µM (active)
[4]
  IC50: 7.04 µM (active)
HEK293 [5]
  IC50: > 20 µM (inactive)
HEK293 [6]
  IC50: > 20 µM (inactive)
[7]
  CC50: 11.1 µM (active)
HEK293 [8]
  IC50: 10.2 µM (inactive)
[9]
  IC50: 5.99 µM (active)
Tumor necrosis factor
  IC50: 5.7 µM (active)
HEK293 [10]
  IC50: > 20 µM (inactive)

## COc1cccc(CNCCc2c[nH]c3ccccc23)c1OCc1ccc(F)cc1
cells
  IC50: 16.4 µM (active)
[11]
  CC50: 13.4 µM (active)
[12]
  IC50: 2.56 µM (active)
[13]
  CC50: 15.6 µM (active)
[14]
  EC50: 6.39 µM (active)
[15]
  IC50: 3.37 µM (active)
[16]
  EC50: 5.74 µM (active)
[17]
  CC50: 9.79 µM (active)

## C=CCN1C(=O)NC(=O)/C(=C/C=C/c2ccccc2)C1=O
HEK293 [1]
  EC50: > 20 µM (inactive)
[18]
  CC50: 75.4 µM (active)
[19]
  AC50: 5.94 µM (active)
[2]
  EC50: > 20 µM (inactive)
[20]
  EC50: > 300 µM (not active)
[21]
  EC50: > 300 µM (not active)
HEK293 [5]
  IC50: 9.21 µM (active)
HEK293 [6]
  IC50: > 20 µM (inactive)
Vero
  CC50: > 25 µM (active)
HEK293 [8]
  IC50: 12.4 µM (inactive)
HEK293 [10]
  IC50: > 20 µM (inactive)

## O=C(c1ccc(Cl)cc1)N1N=C(c2ccccn2)CC1(O)C(F)(F)F (stereo unspecified)
cells
  IC50: 3.69 µM (active)
[11]
  CC50: 13.3 µM (active)
[13]
  CC50: 11.6 µM (active)
[17]
  CC50: 15.2 µM (active)
Vero
  CC50: 20.4 µM (active)
[22]
  CC50: 32.6 µM (active)

## NS(=O)(=O)c1ccc(NC(=S)N2CCN(c3ccccc3)CC2)cc1
[23]
  IC50: 67.2 µM (active)
[24]
  IC50: 72.8 µM (active)
